Measurements from patent US12187758B2 (ROME Therapeutics, Inc., priority 2022, dated 2025).

Key:
Assay type in all cases: cell-based
[1] = Mitochondria toxicity assay with PC3 cells, in-cell ELISA COX-1; conditions: 5 days treatment
Outline: (§1)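 This in-cell ELISA was run on fixed, permeabilized PC3 cells after 5-day exposure to titrated compound, with cytotoxicity measured on a duplicate plate. Results are reported as categories A (<1.0 μM) to E (>100.0 μM).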

[2] = system: phosphorylated TANK-binding kinase 1 (pTBK1); test: UVB-induced pTBK1 in HaCaT cells; conditions: Homo sapiens, light or radiation study, pTBK1 response curves, 72 hours compound treatment, UVB
Description: pTBK1 is an important signaling molecule in regulating inflammatory responses. HaCaT cells were plated in 6-well plates at a density of ˜100 k/well in HaCaT media (DMEM, optimized 1× (Addex Bio)+ 1% pen strep (Gibco)^+ 5% heat inactivated fetal bovine serum (Gibco)). The cells were then cultured at 37° C. overnight. The next day, the cells were treated with the test compounds. Each test compound was diluted and added to media aliquots to provide desired concentrations. To add the test compound+media mixture, an equivalent amount of media from each well was aspirated and then replenished with the media dosed with the test compound. The cells were then cultured for an additional 72 hours with compound treatment prior to UVB exposure.
The media was then aspirated from the wells, with the remaining cells at least 80% confluent in each well. One mL of PBS was then added to each well, and the plate was then placed under a UVB lamp. A UVB sensor was positioned near the plate to register the plate's exposure. The cells were exposed to the UVB light until they reached 0.1 mJ/cm2. Then the plate was covered and transferred to a sterile hood for processing.
The PBS was aspirated out of the wells, and the wells were replenished with 3 mL fresh culture media. The cells were then cultured for an additional 24 hours, and samples were processed 24 hours post-UVB exposure. To process the samples, the media was aspirated, the plate placed on ice, and the cells washed with cold PBS, which was then aspirated off. Another 1 mL of cold PBS was added to each well. The cells were then scraped in the cold PBS solution and transferred to conical tubes on ice. The cells were then spun at ≥1000 RCF at 4° C. for 5 minutes. The cells were then resuspended in 1 mL of cold PBS and transferred to a microcentrifuge tube. The cells were spun at ≥1000 RCF at 4° C. for another 5 minutes, and the PBS was aspirated off. The cell pellet was prepared for lysis.
A RIPA lysis buffer (#BP-115, Boston BioProducts) was added to a Halt protease and […] inhibitor cocktail (#78440, ThermoFisher), and the mixture was cooled on ice. About 30 μL of the lysis buffer mix was added to the cells. The samples were briefly vortexed and then incubated on ice for at least 15 minutes. The cells were then spun≥1000 RCF at 4° C. for 5 minutes and the supernatant was transferred to a clean tube. The protein concentration of the cell lysate was measured using Pierce™ Rapid Gold BCA Protein Assay Kit #AF3225 (ThermoFisher). ELISA analysis was run on select samples using one of the following kits: • a. FastScan™ Phospho-TBK1/NAK (Ser172) ELISA Kit #46948 (Cell Signaling Technologies) • b. FastScan™ Total TBK1/NAK ELISA Kit #15816 (Cell Signaling Technologies) • c. FastScan™ Phospho-STING (Ser366) ELISA Kit #82083 (Cell Signaling Technologies) • d. FastScan™ Phospho-IRF-3 (Ser396) ELISA Kit #50386 (Cell Signaling Technologies) • e. FastScan™ Total IRF-3 ELISA Kit #29771 (Cell Signaling Technologies) • f. Phospho-NAK/TBK1 (S172) ELISA Kit (ab279952) (Abcam) • g. Phospho-IRF3 (S386) ELISA Kit (ab279833) (Abcam) Part II—Results
In the table “A” represents values≤0.50 μM; “B” represents values from >0.50 μM to ≤2.0 μM; “C” represents values from >2.0 μM to ≤5.0 μM; “D” represents values from >5.0 μM to ≤10 μM; and “E” represents values>10 μM.

[3] = system: SDH-A (succinate dehydrogenase-A); test: Mitochondria toxicity assay with PC3 cells, in-cell ELISA SDH-A; conditions: 5 days treatment
Outline: as §1

PC3 cells = test: Mitochondria toxicity assay with PC3 cells, cytotoxicity (Cell Titer Glo); conditions: Homo sapiens, PC-3, 120 h, 5 days treatment
Outline: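 Cytotoxicity reported in μM bins, A <1.0 through E >100.0. Measured via Cell Titer Glo luminescence (30 min, room temperature) after 5-day dose-titration treatment of PC3 cells, grown in F-12K/10% FBS, at 37° C, 5% CO2.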

THP1-Dual KO-TREX1 cells = test: THP1 TREX1 KO inhibition assay (type 1 interferon response); conditions: Homo sapiens, 144 h, type 1 interferon (QUANTI-LUC), 1 μM 5-aza-2′-deoxycytidine, six days
Outline: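 THP1-Dual KO-TREX1 cells were treated with a dose titration of compound, alone or with 1 μM 5-aza-2′-deoxycytidine, for six days at 37 °C. Type 1 interferon was read as secreted luciferase (QUANTI-LUC) in the supernatant, and viability by CellTiter-Glo luminescence.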

7S mitochondria DNA = test: Mitochondria DNA assay with PC3 cells; conditions: Homo sapiens, PC-3, 120 h, 5 days, 7S mitochondria DNA level by qPCR relative to 18S or GAPDH
Description: Exemplary compounds were tested for their effect on levels of 7S mitochondria DNA, and the DNA of housekeeping genes 18S and GAPDH. Reduction of 7S mitochondria DNA indicates off-target inhibition of mitochondrial DNA synthesis, which leads to mitochondrial toxicity. Assay procedures and results are described below.
PC3 cells were purchased from ATCC and cultured in F-12 Kaighn's modified medium (Hyclone), 10% heat-inactivated fetal bovine serum (Gibco), 1% Penicillin-Streptomycin (Invitrogen). PC3 cells were treated with a dose titration of a test compound on 6 well plates for 5 days at 37° C., 5% CO2 in a humidified incubator.
Cells were harvested and mitochondria DNA extraction was performed using DNeasy Blood & Tissue Kit (Qiagen) according to the manufacture's instruction.
Mitochondria 7S and housekeeping genes 18S and GAPDH DNA was quantified by multiplex qPCR with the PowerUp™ SYBR™ Green system (Applied Biosystems). Prepare reaction mix consisting of 5 μl of 2× PowerUp™ SYBR™ Green Master Mix, 1 μl of 5 μM Primers for 7S, 18S, or GAPDH, 4 μl of DNA template from DNA extraction above. The primer sequences are below:
qPCR was performed on QuantStudio™ 7 Flex RealTime qPCR system (Applied Biosystems) as set forth below: • a. 50° C. for 2 minutes, then • b. 95° C. for 2 minutes, then • c. 95° C. for 15 seconds, then • d. 60° C. for 60 seconds, • where then steps (c) and (d) were repeated 60 times.
Threshold was calculated by QuantStudio™ 7 Flex Software (ThermoFisher Scientific) using the default settings. Ct values were used to evaluate the relative mitochondria DNA (mtDNA) level using the following formula: ΔCt=Ct (7S target gene)−Ct (18S) or ΔCt=Ct (7S target gene)−Ct (GAPDH). Relative mtDNA level=2^−Δct. Expression fold over DMSO control=2^−Δct (compound treated group)/2^−Δct (DMSO group)
In the table “A” represents values≤0.1 μM; “B” represents values from >0.1 μM to ≤1.0 μM; “C” represents values from >1.0 μM to ≤10.0 μM; “D” represents values from >10.0 μM to ≤100.0 μM; and “E” represents values>100.0 μM.

Row | SMILES | IC50 (THP1-Dual KO-TREX1 cells) | IC50 (7S mitochondria DNA) | IC50 [1] | IC50 [2] | IC50 [3] | IC50 (PC3 cells)
1 | Nc1ccn([C@H]2C[C@H](O)[C@](CO)(C(F)(F)F)O2)c(=O)n1 [Compound 21, 4-amino-1-((2R,4S,5R)-4-hydroxy-5-(hydroxymethyl)-5-(trifluoromethyl)tetrahydrofuran-2-yl)pyrimidin-2(1H)-one] |  |  | > 100 µM | > 10 µM | > 100 µM | > 100 µM
2 | CC[C@]1(CO)O[C@@H](n2cc(F)c(N)nc2=O)[C@@H](F)[C@@H]1O [Compound 77, 4-amino-1-[(2R,3S,4R,5R)-5-ethyl-3-fluoro-4-hydroxy-5-(hydroxymethyl)oxolan-2-yl]-5-fluoropyrimidin-2-one] | > 1 µM | > 100 µM | > 100 µM |  | > 100 µM | > 100 µM
3 | Nc1ccn([C@@H]2O[C@@](CO)(CBr)[C@@H](O)[C@@H]2F)c(=O)n1 [Compound 172] | > 1 µM |  | > 100 µM |  | > 100 µM | > 100 µM
4 | [2H]C([2H])(Cl)[C@]1(CO)O[C@@H](n2cc(F)c(N)nc2=O)[C@@H](F)[C@@H]1O [Compound 175, 4-amino-1-((2R,3S,4R,5R)-5-(chloromethyl-d2)-3-fluoro-4-hydroxy-5-(hydroxymethyl)tetrahydrofuran-2-yl)-5-fluoropyrimidin-2(1H)-one] | 0.25 to 1 µM |  | > 100 µM |  | > 100 µM | > 100 µM
5 | Cc1cn([C@@H]2O[C@@](CO)(CCl)[C@@H](O)[C@@H]2F)c(=O)[nH]c1=O [Compound 176] | > 1 µM |  | > 100 µM |  | > 100 µM | > 100 µM
6 | Nc1nc(=O)n([C@@H]2OC(CO)(CO)[C@@H](O)[C@@H]2F)cc1F [Compound 177, 4-amino-5-fluoro-1-((2R,3S,4R)-3-fluoro-4-hydroxy-5,5-bis(hydroxymethyl)tetrahydrofuran-2-yl) pyrimidin-2(1H)-one] | > 1 µM |  | > 100 µM |  | > 100 µM | > 100 µM
7 | Cc1cn([C@H]2C[C@H](F)[C@@](C)(CO)O2)c(=O)[nH]c1=O [Compound 180, 1-((2R,4S,5R)-4-fluoro-5-(hydroxymethyl)-5-methyltetrahydrofuran-2-yl)-5-methylpyrimidine-2,4(1H,3H)-dione] | > 1 µM |  | > 100 µM |  | > 100 µM | > 100 µM

Further lines, with some results ahead:

Row | IC50 (THP1-Dual KO-TREX1 cells) | IC50 (7S mitochondria DNA) | SMILES | IC50 [1] | IC50 [2] | IC50 [3] | IC50 (PC3 cells)
8 | > 1 µM | > 100 µM | CC(C)C(=O)OC[C@@]1(CCl)O[C@@H](n2ccc(N)nc2=O)[C@H](F)[C@@H]1OC(=O)C(C)C [Compound 24, (2R,3R,4R,5R)-5-(4-amino-2-oxopyrimidin-1(2H)-yl)-2-(chloromethyl)-4-fluoro-2-((isobutyryloxy)methyl) tetrahydrofuran-3-yl isobutyrate] | > 100 µM |  | > 100 µM | > 100 µM
9 | > 1 µM | 0.1 to 1 µM | Nc1ccn([C@@H]2O[C@@](CO)(CCl)[C@@H](O)[C@H]2F)c(=O)n1 [Compound 31, 4-amino-1-((2R,3R,4R,5R)-5-(chloromethyl)-3-fluoro-4-hydroxy-5-(hydroxymethyl)tetrahydrofuran-2-yl)pyrimidin-2(1H)-one] | 10 to 50 µM |  | 10 to 50 µM | 10 to 50 µM
10 | > 1 µM | > 100 µM | Nc1nc(=O)n([C@@H]2O[C@@](CO)(CCl)[C@@H](O)[C@@H]2O)cc1F [Compound 73, 4-amino-1-((2R,3S,4S,5R)-5-(chloromethyl)-3,4-dihydroxy-5-(hydroxymethyl)tetrahydrofuran-2-yl)-5-fluoropyrimidin-2(1H)-one] | > 100 µM |  | > 100 µM | > 100 µM
11 | > 1 µM | > 100 µM | Nc1nc(=O)n([C@@H]2O[C@@](CO)(CBr)[C@@H](O)[C@@H]2F)cc1F [Compound 86, 4-amino-1-[(2R,3S,4R,5R)-5-(bromomethyl)-3-fluoro-4-hydroxy-5-(hydroxymethyl)oxolan-2-yl]-5-fluoropyrimidin-2-one] | > 100 µM |  | > 100 µM | > 100 µM
12 | 0.25 to 1 µM |  | [N-]=[N+]=N[C@]1(CO)O[C@@H](n2cc(F)c(N)nc2=O)[C@@H](F)[C@@H]1O [Compound 165] | < 1 µM |  | < 1 µM | > 100 µM
13 | > 1 µM |  | Cc1cn([C@@H]2O[C@@](CO)(N=[N+]=[N-])[C@@H](O)[C@@H]2F)c(=O)[nH]c1=O [Compound 178, 1-((2R,3S,4R,5R)-5-azido-3-fluoro-4-hydroxy-5-(hydroxymethyl)tetrahydrofuran-2-yl)-5-methylpyrimidine-2,4(1H,3H)-dione] | 10 to 50 µM |  | > 100 µM | > 100 µM
14 | > 1 µM |  | O=c1[nH]c(=O)n([C@@H]2O[C@@](CO)(CCO)[C@@H](O)[C@@H]2F)cc1F [Compound 179, 5-fluoro-1-((2R,3S,4R,5R)-3-fluoro-4-hydroxy-5-(2-hydroxyethyl)-5-(hydroxymethyl)tetrahydrofuran-2-yl) pyrimidine-2,4(1H,3H)-dione] | > 100 µM |  | > 100 µM | > 100 µM
